# In patent US9849132B2, “Products and pharmaceutical compositions” (Intra-Cellular Therapies, Inc., priority 2014, dated 2017):
# Biological target: PDE1 (3′,5′-cyclic-nucleotide-specific bovine brain phosphodiesterase)
# Assay: Measurement of PDE1 inhibition in vitro using IMAP phosphodiesterase assay kit
# Type: biochemical
# Conditions: IMAP fluorescence polarization, FL-GMP substrate, bovine brain phosphodiesterase with calmodulin
# Excerpt: Phosphodiesterase 1B (PDE1B) is a calcium/calmodulin dependent phosphodiesterase enzyme that converts cyclic guanosine monophosphate (cGMP) to 5′-guanosine monophosphate (5′-GMP). PDE1B can also convert a modified cGMP substrate, such as the fluorescent molecule cGMP-fluorescein, to the corresponding GMP-fluorescein. The generation of GMP-fluorescein from cGMP-fluorescein can be quantitated, using, for example, the IMAP (Molecular Devices, Sunnyvale, Calif.) immobilized-metal affinity particle reagent.
# Briefly, the IMAP reagent binds with high affinity to the free 5′-phosphate that is found in GMP-fluorescein and not in cGMP-fluorescein. The resulting GMP-fluorescein—IMAP complex is large relative to cGMP-fluorescein. Small fluorophores that are bound up in a large, slowly tumbling, complex can be distinguished from unbound fluorophores, because the photons emitted as they fluoresce retain the same polarity as the photons used to excite the fluorescence.
# In the phosphodiesterase assay, cGMP-fluorescein, which cannot be bound to IMAP, and therefore retains little fluorescence polarization, is converted to GMP-fluorescein, which, when bound to IMAP, yields a large increase in fluorescence polarization (Δmp). Inhibition of phosphodiesterase, therefore, is detected as a decrease in Δmp. […]
# A decrease in GMP concentration, measured as decreased Δmp, is indicative of inhibition of PDE activity. […]
compound,measurement,value
"CN1C(=O)c2c(nn(Cc3ccc(-c4ccccn4)cc3)c2Nc2ccccc2)N2C1=N[C@@H]1CCC[C@@H]12 [Example 1, (6aR,9aS)-5,6a,7,8,9,9a-hexahydro-5-methyl-3-(phenylamino)-2-((4-Pyridin-2yl)-benzyl)-cyclopent[4,5]imidazo[1,2-a]pyrazolo[4,3-e]pyrimidin-4(2H)-one]",IC50,0.105 nM
